Measurements published in patent US8541395B2 (priority 2009, dated 2013).

Assays:
Kv1.5 = Kv1.5 (Homo sapiens, UniProt P22460); assay: Patch clamp assay, ion channel inhibition; format: cell-based; details: 2000 μM; n=2
Protocol: (§1) The studies were conducted according to the conventional procedures.
(§2) The exposure duration of each channel was 5 minutes. […] Any left current after exposure to this dose was digitally subtracted to eliminate the contribution of any endogenous current.

male Swiss mice [1] = assay: Hot plate assay; details: for effect of naloxone on the analgesic action: naloxone 5 mg/kg i.p., morphine dose printed as 'mg/kg', telocinobufagin 5 mg/kg oral
male Swiss mice [2] = assay: Contortion assay (0.6% acetic acid, abdominal contortions) in mice; details: for effect of naloxone on the analgesic action: naloxone 5 mg/kg i.p., morphine 10 mg/kg i.p., telocinobufagin 10 mg/kg oral
male Swiss mice [3] = assay: Tail flick assay; details: for effect of naloxone on the analgesic action: naloxone 5 mg/kg i.p., morphine 10 mg/kg, telocinobufagin 5 mg/kg oral
male Swiss mice [4] = assay: Formalin assay (intraplantar 4% formalin, phases 1 and 2) in mice; details: for effect of naloxone on the analgesic action, phase 1 / effect of naloxone on the analgesic action, phase 2: naloxone 5 mg/kg i.p., morphine 10 mg/kg, telocinobufagin 5 mg/kg oral
[5] = test system: rats with sciatic nerve ligature; assay: Chronic constrictive injury (CCI) model, allodynia (von Frey); details: for effect of naloxone on the analgesic action, allodynia: naloxone 5 mg/kg i.p., morphine 10 mg/kg, telocinobufagin 5 mg/kg i.p.; for antinociceptive effect on allodynia: p<0.05
[6] = test system: rats with sciatic nerve ligature; assay: Chronic constrictive injury (CCI) model, hyperalgesia (Randall & Selitto paw pressure); details: for effect of naloxone on the analgesic action, hyperalgesia: naloxone 5 mg/kg i.p., morphine 10 mg/kg, telocinobufagin 5 mg/kg i.p.
right atrium of rats = assay: Chronotropism of isolated rat atrium (frequency of spontaneous contractions)
Excerpt: The right rat atrium was used to assess the chronotropic activity. The values of the spontaneous mechanical activity of the right atrium were expressed in contractions frequency or beats per minute (bpm). The heart rate was 298±50 contractions per minute in the rat right atrium.

left atrium of rats = assay: Inotropism of isolated rat atrium (cardiac contraction force)
Excerpt: The left atrium of rats was used to assess the inotropic activity. The data were expressed as contraction force (g of tension), and were compared to the results obtained with bupivacaine.
The application of square pulses (5 V, 5 ms, 2 Hz) in the left atrium with frequency of 120 bpm was sufficient to produce a cardiac contraction force of 0.63±0.09 g of tension.

Kir6.2/SUR2A = Kir6.2/SUR2A (Homo sapiens, UniProt O60706+Q14654); assay: Patch clamp assay, ion channel inhibition; format: cell-based; details: n=2, read-out: Mean % inhibition (positive control)
Protocol: as §1, §2

Kir3.1/3.4 = molecular target: T1, Kir3.1/3.4 (Homo sapiens, UniProt P48544+P48549); assay: Patch clamp assay, ion channel inhibition; format: cell-based; details: 300 μM; n=2
T1 sequence (P48549 1-501): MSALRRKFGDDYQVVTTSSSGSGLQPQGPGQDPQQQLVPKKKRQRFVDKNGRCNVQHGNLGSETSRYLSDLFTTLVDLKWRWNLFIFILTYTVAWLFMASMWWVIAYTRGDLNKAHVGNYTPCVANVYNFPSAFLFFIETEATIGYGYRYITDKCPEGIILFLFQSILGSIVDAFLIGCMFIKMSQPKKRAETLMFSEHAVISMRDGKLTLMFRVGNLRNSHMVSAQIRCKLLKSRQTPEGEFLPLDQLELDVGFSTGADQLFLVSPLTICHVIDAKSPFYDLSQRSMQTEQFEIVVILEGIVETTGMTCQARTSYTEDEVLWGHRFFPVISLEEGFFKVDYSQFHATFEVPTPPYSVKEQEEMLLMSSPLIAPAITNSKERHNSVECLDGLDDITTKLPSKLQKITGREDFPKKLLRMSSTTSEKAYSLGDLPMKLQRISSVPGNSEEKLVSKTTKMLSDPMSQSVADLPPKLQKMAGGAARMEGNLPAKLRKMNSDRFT
T1 sequence (P48544 1-419): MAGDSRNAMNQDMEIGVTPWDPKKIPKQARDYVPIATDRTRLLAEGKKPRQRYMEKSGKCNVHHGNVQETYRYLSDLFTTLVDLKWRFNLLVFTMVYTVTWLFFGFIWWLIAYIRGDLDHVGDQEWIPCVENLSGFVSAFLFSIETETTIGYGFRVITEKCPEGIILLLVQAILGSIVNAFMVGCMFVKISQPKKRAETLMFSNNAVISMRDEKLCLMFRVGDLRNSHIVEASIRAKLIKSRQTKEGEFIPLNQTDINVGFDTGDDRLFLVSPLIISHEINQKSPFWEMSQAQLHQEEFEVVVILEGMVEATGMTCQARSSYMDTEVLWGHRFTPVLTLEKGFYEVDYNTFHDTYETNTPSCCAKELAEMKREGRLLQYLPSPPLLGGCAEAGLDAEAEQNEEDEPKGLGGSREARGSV
Protocol: as §1, §2

Kir2.1 = molecular target: T2, Kir2.1 (Homo sapiens, UniProt P63252); assay: Patch clamp assay, ion channel inhibition; format: cell-based; details: 100 μM; n=2
T2 sequence (P63252 1-427): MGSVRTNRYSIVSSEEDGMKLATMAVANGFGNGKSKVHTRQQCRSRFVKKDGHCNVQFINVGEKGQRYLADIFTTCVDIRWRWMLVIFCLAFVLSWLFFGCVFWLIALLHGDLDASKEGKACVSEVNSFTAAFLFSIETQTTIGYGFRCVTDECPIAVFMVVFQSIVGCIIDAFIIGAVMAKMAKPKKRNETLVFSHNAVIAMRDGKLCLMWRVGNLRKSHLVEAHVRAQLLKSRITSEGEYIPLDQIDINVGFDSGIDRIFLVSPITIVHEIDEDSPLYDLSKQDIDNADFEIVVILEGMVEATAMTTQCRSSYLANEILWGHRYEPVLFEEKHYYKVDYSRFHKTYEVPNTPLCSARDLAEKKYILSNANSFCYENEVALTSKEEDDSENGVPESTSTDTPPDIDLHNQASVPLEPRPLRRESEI

Chain of Kv1.5 (P22460 whole entry): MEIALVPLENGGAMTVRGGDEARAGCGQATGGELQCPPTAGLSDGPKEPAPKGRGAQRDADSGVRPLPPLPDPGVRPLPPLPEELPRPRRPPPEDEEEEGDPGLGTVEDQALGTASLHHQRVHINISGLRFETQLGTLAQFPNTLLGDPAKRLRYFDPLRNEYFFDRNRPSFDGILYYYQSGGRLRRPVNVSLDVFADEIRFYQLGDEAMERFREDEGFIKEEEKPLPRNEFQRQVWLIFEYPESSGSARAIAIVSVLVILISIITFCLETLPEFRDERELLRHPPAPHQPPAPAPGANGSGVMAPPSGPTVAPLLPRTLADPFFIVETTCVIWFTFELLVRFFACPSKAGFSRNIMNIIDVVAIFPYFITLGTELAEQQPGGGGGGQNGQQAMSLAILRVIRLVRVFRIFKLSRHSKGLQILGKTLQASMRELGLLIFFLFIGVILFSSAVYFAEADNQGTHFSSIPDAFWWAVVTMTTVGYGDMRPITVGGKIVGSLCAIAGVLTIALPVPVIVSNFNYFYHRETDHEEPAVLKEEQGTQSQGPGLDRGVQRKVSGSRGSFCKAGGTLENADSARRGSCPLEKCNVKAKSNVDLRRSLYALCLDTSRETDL
Chain of Kir6.2/SUR2A (Q14654 whole entry): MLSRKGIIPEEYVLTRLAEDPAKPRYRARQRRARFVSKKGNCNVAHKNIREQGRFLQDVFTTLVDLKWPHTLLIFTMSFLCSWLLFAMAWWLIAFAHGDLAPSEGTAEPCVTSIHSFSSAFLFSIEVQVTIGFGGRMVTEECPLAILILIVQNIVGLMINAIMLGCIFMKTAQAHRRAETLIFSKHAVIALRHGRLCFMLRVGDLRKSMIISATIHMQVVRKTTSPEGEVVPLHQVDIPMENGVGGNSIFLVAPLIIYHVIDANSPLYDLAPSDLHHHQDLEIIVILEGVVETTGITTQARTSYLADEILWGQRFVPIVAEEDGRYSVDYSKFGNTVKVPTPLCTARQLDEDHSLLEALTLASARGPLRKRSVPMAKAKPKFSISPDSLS
Chain of Kir6.2/SUR2A (O60706 whole entry): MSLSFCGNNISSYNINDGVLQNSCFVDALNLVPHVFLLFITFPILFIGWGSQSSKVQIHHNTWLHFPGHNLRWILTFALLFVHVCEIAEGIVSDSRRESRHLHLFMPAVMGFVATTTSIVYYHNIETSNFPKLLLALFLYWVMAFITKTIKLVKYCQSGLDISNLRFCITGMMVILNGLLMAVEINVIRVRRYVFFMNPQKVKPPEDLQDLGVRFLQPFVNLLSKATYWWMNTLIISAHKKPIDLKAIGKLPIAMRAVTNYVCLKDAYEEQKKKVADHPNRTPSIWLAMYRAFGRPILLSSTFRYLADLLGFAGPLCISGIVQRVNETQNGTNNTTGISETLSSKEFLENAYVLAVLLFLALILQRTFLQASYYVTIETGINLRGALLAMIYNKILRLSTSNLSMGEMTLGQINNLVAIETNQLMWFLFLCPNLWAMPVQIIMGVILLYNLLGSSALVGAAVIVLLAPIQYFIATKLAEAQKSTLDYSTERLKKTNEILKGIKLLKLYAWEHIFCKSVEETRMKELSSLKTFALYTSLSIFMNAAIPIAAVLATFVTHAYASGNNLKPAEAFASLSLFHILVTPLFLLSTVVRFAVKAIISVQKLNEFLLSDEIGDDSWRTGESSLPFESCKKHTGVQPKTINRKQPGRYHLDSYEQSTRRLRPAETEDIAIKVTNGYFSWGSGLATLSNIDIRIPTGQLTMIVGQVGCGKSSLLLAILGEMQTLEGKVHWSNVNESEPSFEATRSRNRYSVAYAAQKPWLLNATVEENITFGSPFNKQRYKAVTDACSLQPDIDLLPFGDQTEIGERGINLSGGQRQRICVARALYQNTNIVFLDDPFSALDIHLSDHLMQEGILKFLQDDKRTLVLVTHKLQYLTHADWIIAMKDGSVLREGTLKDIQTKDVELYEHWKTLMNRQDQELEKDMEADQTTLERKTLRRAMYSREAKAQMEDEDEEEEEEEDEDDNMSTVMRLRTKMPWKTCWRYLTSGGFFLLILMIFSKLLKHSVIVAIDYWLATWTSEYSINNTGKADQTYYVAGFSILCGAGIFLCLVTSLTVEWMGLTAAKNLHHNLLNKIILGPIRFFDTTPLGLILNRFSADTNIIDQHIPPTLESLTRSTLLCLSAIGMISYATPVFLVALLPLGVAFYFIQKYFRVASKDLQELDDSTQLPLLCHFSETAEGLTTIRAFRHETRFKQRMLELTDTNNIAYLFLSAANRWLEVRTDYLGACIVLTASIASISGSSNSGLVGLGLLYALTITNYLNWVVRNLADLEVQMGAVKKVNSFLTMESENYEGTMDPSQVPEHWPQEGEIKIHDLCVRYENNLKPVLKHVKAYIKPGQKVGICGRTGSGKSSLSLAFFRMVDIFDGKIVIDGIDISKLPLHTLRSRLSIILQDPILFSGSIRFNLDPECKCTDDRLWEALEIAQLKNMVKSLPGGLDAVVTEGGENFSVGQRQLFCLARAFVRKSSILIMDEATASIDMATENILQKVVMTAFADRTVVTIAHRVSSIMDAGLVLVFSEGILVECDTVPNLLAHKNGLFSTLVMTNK

Nc1ccncc1 [4-AP]
Mean % inhibition (positive control) (Kv1.5): 85.1%

CN1CC[C@]23c4c5ccc(O)c4O[C@H]2[C@@H](O)C=C[C@H]3[C@H]1C5.O=S(=O)(O)O [morphine, morphine sulfate, reference compound]
effect of naloxone on the analgesic action (male Swiss mice [1]): blocked
effect of naloxone on the analgesic action (male Swiss mice [2]): blocked
effect of naloxone on the analgesic action (male Swiss mice [3]): blocked
effect of naloxone on the analgesic action, phase 1 (male Swiss mice [4]; phase 1): blocked
effect of naloxone on the analgesic action, phase 2 (male Swiss mice [4]; phase 2): blocked
reversion of the allodynia (compared to RP) ([5]; intraperitoneal morphine 10 mg/kg): ~50%
effect of naloxone on the analgesic action, allodynia [5]: blocked
effect of naloxone on the analgesic action, hyperalgesia [6]: blocked

C[C@]12CC[C@H](O)C[C@@]1(O)CC[C@@H]1[C@@H]2CC[C@]2(C)[C@@H](c3ccc(=O)oc3)CC[C@]12O [telocinobufagin, (3β,5β)-3,5,14-trihydroxy-bufa-20,22-dienolide]
effect of naloxone on the analgesic action (male Swiss mice [1]): did not block
increase of the response (latency) compared to control group (male Swiss mice [1]; oral, dose printed as 'mg/kg' without figure, p<0.001): approximately 450%
antinociceptive effect compared to the other analgesics (male Swiss mice [2]; 10 mg/kg oral vs diclofenac 50, dipyrone 50, codeine 20 mg/kg i.p., p<0.05): pretty much superior to the effects of the other analgesics
contortions blocked compared to the control group (male Swiss mice [2]; 10 mg/kg oral, mice, p<0.001): ~90%
effect of naloxone on the analgesic action (male Swiss mice [2]): did not block
antinociceptive effect, mol to mol, greater than that of morphine (male Swiss mice [2]; telocinobufagin 10 mg/kg oral vs morphine sulfate 10 mg/kg i.p.): ~40%
solubility in 50% DMSO (Solubility; 50% DMSO (v/v in water)): soluble
solubility in ethanol (Solubility; ethanol (100%)): soluble
solubility in chloroform (Solubility; pure chloroform): soluble
solubility in water (Solubility; water): insoluble
antinociceptive effect (tail flick latency) (male Swiss mice [3]; doses of 2.5 and 5 mg/kg oral, p<0.05): significant antinociceptive effects
effect of naloxone on the analgesic action (male Swiss mice [3]): did not block
alteration of the spontaneous mechanical cardiac activity compared to the control (right atrium of rats; 10^−7 M to 10^−4 M, n=6, p>0.05): no significant alteration
antinociceptive effect compared to the other analgesics, phase 1 (male Swiss mice [4]; phase 1, 10 mg/kg oral vs diclofenac 50, dipyrone 50, codeine 20 mg/kg i.p., p<0.05): pretty much superior to that of the other analgesics
licks blocked compared to the control group, phase 1 (male Swiss mice [4]; phase 1, 10 mg/kg oral, p<0.005): ~80%
effect of naloxone on the analgesic action, phase 1 (male Swiss mice [4]; phase 1): did not block
antinociceptive effect, mol to mol, greater than that of morphine, phase 1 (male Swiss mice [4]; phase 1, telocinobufagin 10 mg/kg oral vs morphine sulfate 10 mg/kg i.p.): ~40%
antinociceptive effect compared to the other analgesics, phase 2 (male Swiss mice [4]; phase 2, 5 mg/kg oral vs diclofenac 50, dipyrone 50, codeine 20 mg/kg i.p., p<0.05): pretty much superior to that of the other analgesics
licks blocked compared to the control group, phase 2 (male Swiss mice [4]; phase 2, 10 mg/kg oral, p<0.0001): ~100%
effect of naloxone on the analgesic action, phase 2 (male Swiss mice [4]; phase 2): did not block
antinociceptive effect, mol to mol, greater than that of morphine, phase 2 (male Swiss mice [4]; phase 2, telocinobufagin 5 mg/kg oral vs morphine sulfate 10 mg/kg i.p.): ~58%
alteration of the cardiac contraction force (left atrium of rats; 10^−3 M during 12 minutes, p>0.05): did not produce significant alteration
alteration of the cardiac contraction force compared to the control (left atrium of rats; 10^−7 to 10^−4 M): no significant alteration
antinociceptive effect on allodynia ([5]; 5 mg/kg i.p.): blocking completely the allodynia
antinociceptive effect on allodynia ([5]; 20 mg/kg oral): blocking completely the allodynia
duration of the analgesic effects on allodynia ([5]; intraperitoneal 5 mg/kg): around 6 hours
reversion of the allodynia (compared to RP) ([5]; intraperitoneal TBC 5 mg/kg): reverted completely the allodynia
effect of naloxone on the analgesic action, allodynia [5]: did not block significantly
duration of the analgesic effects on allodynia ([5]; oral 20 mg/kg): around 6 hours
reversion of the allodynia (compared to RP) ([5]; oral TBC 20 mg/kg): reverted completely the allodynia
duration of the analgesic effects on hyperalgesia ([6]; intraperitoneal 5 mg/kg): around 6 hours
increase of the response compared to the control group (RPtest), hyperalgesia ([6]; intraperitoneal 5 mg/kg, p<0.001): approximately 9 times
effect of naloxone on the analgesic action, hyperalgesia [6]: did not block significantly
duration of the analgesic effects on hyperalgesia ([6]; oral 20 mg/kg): around 6 hours
increase of the response compared to the control group (RPtest), hyperalgesia ([6]; oral 20 mg/kg, p<0.05): ~3.9 times
antinociceptive effect, mol to mol, greater than that of morphine, hyperalgesia ([6]; telocinobufagin 5 mg/kg i.p. (20 mg/kg oral) vs morphine sulfate 10 mg/kg i.p.): approximately 900%
antinociceptive effect compared to the other analgesics, hyperalgesia ([6]; vs diclofenac, codeine, dipyrone, amitriptyline, carbamazepine, prednisone, p<0.05): pretty much superior to that of the other analgesics

COc1ccc(Cl)cc1C(=O)NCCc1ccc(S(=O)(=O)NC(=O)NC2CCCCC2)cc1 [Glibenclamide]
inhibition at 1 µM (Kir6.2/SUR2A): 79.8%

[Ba] [Barium]
Mean % inhibition (positive control) (Kir3.1/3.4): 86.6%
Mean % inhibition (positive control) (Kir2.1): 85.4%

CCCCN1CCCCC1C(=O)Nc1c(C)cccc1C (centres unmarked) [bupivacaine, reference compound]
frequency of spontaneous cardiac activity (right atrium of rats; 3×10^−5 M, basal 298±50, mean±standard error, n=6): 9.6±2.4 bpm
heart rate (frequency of spontaneous cardiac activity) (right atrium of rats; 10^−4 M, p<0.05): blocked completely the heart rate to zero
cardiac contraction force (left atrium of rats; 3×10^−5 M, basal 0.63±0.09, mean±SEM, n=6): 0.13±0.06 g of tension
cardiac contraction force (left atrium of rats; 10^−4 M, p<0.05): blocked completely the cardiac contraction force to zero
